Data: PMC7482398 (Molecular Pharmaceutics, 2020)
Where two headings read alike, the source gives them in different places.

Assays:
[1] = test system: P-gp function at the blood–brain barrier; conditions: rhesus monkey, in vivo
[2] = rhesus monkey, in vivo
P-gp function at the BBB = conditions: cited from earlier work
P-gp = conditions: cited from earlier work
[3] = rats, 30 min after tracer injection; cited from earlier work
[4] = cited from earlier work
Sprague Dawley rats = conditions: male and female Sprague Dawley rats, 2.5 mg/kg body weight, 14 days of observation; cited from earlier work
Salmonella typhimurium = Salmonella typhimurium mutation test; cited from earlier work
Escherichia coli = Escherichia coli mutation test; cited from earlier work
[5] = after P-gp inhibition, tariquidar 8 mg/kg i.v. 30 min before PET

| Compound | change in K1 between baseline and after-inhibition [1] | increase of whole brain VT from 10 min to 91-min data [1] | plasma radioactivity representing the parent tracer [2] | difference in biological T1/2 and Ke between baseline and after-inhibition scans ([2]; 8 mg/kg) | K1 rats (P-gp function at the BBB; [5]) | VT rats (P-gp function at the BBB; [5]) | K1 rats (P-gp function at the BBB; baseline scans) | VT rats (P-gp function at the BBB; baseline scans) | increase in K1 after tariquidar compared with baseline (P-gp function at the BBB; rats) | increase in VT after tariquidar compared with baseline (P-gp function at the BBB; rats) | whole brain K1 higher in tariquidar-treated rats than in control rats (P-gp function at the BBB; rats) | whole brain VT higher in tariquidar-treated rats than in control rats (P-gp function at the BBB; rats) | VT (brain uptake at the baseline) (P-gp; mice and rats, baseline) | transporter selectivity (P-gp vs BCRP) (P-gp; ref Savolainen et al. (2017), 14) | parent [18F]MC225 still available in plasma [3] | log D [4] | toxicity (Sprague Dawley rats) | mutagenic activity (Salmonella typhimurium) | mutagenic activity (Escherichia coli) |
| --- | --- | --- | --- | --- | --- | --- | --- | --- | --- | --- | --- | --- | --- | --- | --- | --- | --- | --- | --- |
| COc1cc2c(cc1OC)CN(CCCC1CCCc3c(OCC[18F])cccc31)CC2 (stereo not shown) [[^18F]MC225] | 42–44% | 165% | 50% | did not find significant differences | 0.81 | 20 | 0.12 mL/mL/min | 7.7 | 6–11 fold | 2–4 fold | 575% | 159% | 6.6–11 | selectively transported by P-gp and not by BCRP | 24% | 3.0 | – | – | – |
| COc1cc2c(cc1OC)CN(CCCC1CCCc3c(OCCF)cccc31)CC2 (stereo not shown) [MC225, 5-(1-(2-fluoroethoxy))-[3-(6,7-dimethoxy-3,4-dihydro-1H-isoquinolin-2-yl)-propyl]-5,6,7,8-tetrahydronaphthalen] | – | – | – | – | – | – | – | – | – | – | – | – | – | – | – | – | did not cause toxicity | did not reveal any mutagenic activity | did not reveal any mutagenic activity |
